Results reported in patent US11505543B2, “4-oxo-3,4-dihydroquinazoline compounds as inhibitors of human immunodeficiency virus replication” (VIIV HEALTHCARE UK (NO.5) LIMITED, priority 2018, dated 2022).

Assays:
[1] = test system: recombinant NL4-3 virus (nef section replaced with Renilla luciferase gene) in MT-2 cells; assay: HIV cell culture assay (antiviral activity, luciferase readout); assay type: cell-based; conditions: Renilla, NL43, MT-2 cells infected for 4-5 days with recombinant NL4-3 Renilla luciferase virus, serial dilutions of compound
Method in brief: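 Test compound in serial dilution was present while MT-2 cells were infected for 4–5 days with recombinant NL4-3 virus made in 293T cells. Antiviral activity was quantified as Renilla luciferase activity, read with a live-cell substrate. EC50 came from the median-effect equation.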

[2] = Compound cytotoxicity, XTT-based colorimetric assay; assay type: cell-based; conditions: human, uninfected MT2 cells, day 4, XTT
Method in brief: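 Run under the antiviral-assay protocol but without virus. Viability was read on day 4 and CC50 values were derived from the readout.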

Row | Compound | EC50 [1] [nM] | CC50 at 4 day [2] [nM]
1 | Cc1nccnc1-c1ccc2c(=O)n(-c3ccc(Cl)c4c(NS(=O)(=O)C5CC5)nn(CC(F)F)c34)c([C@H](Cc3cc(F)cc(F)c3)NC(=O)Cn3nc(C(F)F)cc3C(F)F)nc2c1 [Example 191, (S)-2-(3,5-bis(difluoromethyl)-1H-pyrazol-1-yl)-N-(1-(3-(4-chloro-3-(cyclopropanesulfonamido)-1-(2,2-difluoroethyl)-1H-indazol-7-yl)-7-(3-methylpyrazin-2-yl)-4-oxo-3,4-dihydroquinazolin-2-yl)-2-(3,5-difluorophenyl)ethyl)acetamide] | 1.5 | > 500
2 | Cn1nc(NS(C)(=O)=O)c2c(Cl)ccc(-n3c([C@H](Cc4cc(F)cc(F)c4)NC(=O)Cn4nc(C(F)F)c5c4C(F)(F)[C@@H]4C[C@H]54)nc4cc(-c5ccc(C(C)(C)C)cc5)ccc4c3=O)c21 [Example 192, N-((S)-1-(7-(4-(tert-butyl)phenyl)-3-(4-chloro-1-methyl-3-(methylsulfonamido)-1H-indazol-7-yl)-4-oxo-3,4-dihydroquinazolin-2-yl)-2-(3,5-difluorophenyl)ethyl)-2-((3bS,4aR)-3-(difluoromethyl)-5,5-difluoro-3b,4,4a,5-tetrahydro-1H-cyclopropa[3,4]cyclopenta[1,2-c]pyrazol-1-yl)acetamide] | 5.1 | > 1000
3 | Cn1nc(NS(C)(=O)=O)c2c(Cl)ccc(-n3c([C@H](Cc4cc(F)cc(F)c4)NC(=O)Cn4nc(C(F)F)c5c4C(F)(F)[C@@H]4C[C@H]54)nc4cc(-c5ccc(F)cc5)ccc4c3=O)c21 [Example 193, N-((S)-1-(3-(4-chloro-1-methyl-3-(methylsulfonamido)-1H-indazol-7-yl)-7-(4-fluorophenyl)-4-oxo-3,4-dihydroquinazolin-2-yl)-2-(3,5-difluorophenyl)ethyl)-2-((3bS,4aR)-3-(difluoromethyl)-5,5-difluoro-3b,4,4a,5-tetrahydro-1H-cyclopropa[3,4]cyclopenta[1,2-c]pyrazol-1-yl)acetamide] | 0.95 | > 1000
4 | Cn1nc(NS(C)(=O)=O)c2c(Cl)ccc(-n3c([C@H](Cc4cc(F)cc(F)c4)NC(=O)Cn4nc(C(F)F)c5c4C(F)(F)[C@@H]4C[C@H]54)nc4cc(-c5ccc(Cl)c(F)c5)ccc4c3=O)c21 [Example 194, N-((S)-1-(3-(4-chloro-1-methyl-3-(methylsulfonamido)-1H-indazol-7-yl)-7-(4-chloro-3-fluorophenyl)-4-oxo-3,4-dihydroquinazolin-2-yl)-2-(3,5-difluorophenyl)ethyl)-2-((3bS,4aR)-3-(difluoromethyl)-5,5-difluoro-3b,4,4a,5-tetrahydro-1H-cyclopropa[3,4]cyclopenta[1,2-c]pyrazol-1-yl)acetamide] | 7.7 | > 1000
5 | Cn1nc(NS(C)(=O)=O)c2c(Cl)ccc(-n3c([C@H](Cc4cc(F)cc(F)c4)NC(=O)Cn4nc(C(F)F)c5c4C(F)(F)[C@@H]4C[C@H]54)nc4cc(-c5ccccc5)ccc4c3=O)c21 [Example 195, N-((S)-1-(3-(4-chloro-1-methyl-3-(methylsulfonamido)-1H-indazol-7-yl)-4-oxo-7-phenyl-3,4-dihydroquinazolin-2-yl)-2-(3,5-difluorophenyl)ethyl)-2-((3bS,4aR)-3-(difluoromethyl)-5,5-difluoro-3b,4,4a,5-tetrahydro-1H-cyclopropa[3,4]cyclopenta[1,2-c]pyrazol-1-yl)acetamide] | 0.36 | > 1000
